Data on two substances can be found in patent US8067542B1 (priority 2003, dated 2011).

Where two headings read alike, the source gives them in different places.

For data set [1], the system named is Fusarium graminearum. The format is cell-based.
For data set [2], the system named is Verticillium dahliae. The class given is cell-based.
Data set [3] has as its system Verticillium dahliae. To be noted: plants expressing AlfAFP; cited from earlier work.
For data set [4], the system named is Fusarium graminearum. As to conditions: cited from earlier work.
Where [5] appears, read: High Ionic Strength Media (50 mM K+, 1 mM Ca2+).

Consider “Alf3: AlfAFP variant: AsnTyr inserted between C33 and R34 (RTCENLADKYRGPCFSGCDTHCTTKENAVSGRCNYRDDFRCWCTKRC; listed as Medicago sativa)”, for which the “minimun concentration of protein required to inhibit fungal growth” value with Fusarium graminearum [1] (setting [5]) was >>>20 ppm; in the data set with Fusarium graminearum [1] (Standard Media) it was 20 ppm.
On to “Alf - wt: native alfalfa antifungal protein (plant defensin from Medicago sativa seeds), SEQ ID NO:2 (RTCENLADKYRGPCFSGCDTHCTTKENAVSGRCRDDFRCWCTKRC; listed as Medicago sativa)”, for which the “minimun concentration of protein required to inhibit fungal growth” value in the data set on Fusarium graminearum [1] (setting [5]) is recorded as 15-20 ppm; with Fusarium graminearum [1] (Standard Media) it was 10 ppm. Further, the entries for the “minimum concentration of protein required to inhibit fungal growth” value in the data set on Verticillium dahliae [2] (setting [5]) and in the data set on Verticillium dahliae [2] (Standard Media) were 15 ppm and 5 ppm, respectively. Besides, the “agronomic effect on potato tuber size” value in the data set with Verticillium dahliae [3] was “reduction in potato tuber size”. Also, the “protection of plants infected with Fusarium head blight” value in the data set on Fusarium graminearum [4] is recorded as “unable to provide an adequate level of protection”.
